Assay results published in PMC8677862, “Substrate binding modes of purine and pyrimidine nucleotides to human ecto-5′-nucleotidase (CD73) and inhibition by their bisphosphonic acid derivatives” (Purinergic Signalling, 2021).
“And” between values parts separate entries of the source, which are not always exact repeats. Identical values can stand only once. Counter-ions that a name gives are not always drawn. Like-named read-outs stand apart in the source and are kept apart here. Blank lines part the entries; values can stand above or below the molecule they belong to.

Columns and labels:
[1] = biological target: T1, CD73 (Homo sapiens, UniProt P21589, K145S/K147S/K478S/N311D/N333D/N403D/N53D/T376A); assay: Crystallographic fragment screening by crystal soaking, open form of CD73; format: binding
T1 construct: His6 (C); made in house
T1 sequence (P21589 27-549 N53D/K145S/K147S/N311D/N333D/T376A/N403D/K478S limits assumed): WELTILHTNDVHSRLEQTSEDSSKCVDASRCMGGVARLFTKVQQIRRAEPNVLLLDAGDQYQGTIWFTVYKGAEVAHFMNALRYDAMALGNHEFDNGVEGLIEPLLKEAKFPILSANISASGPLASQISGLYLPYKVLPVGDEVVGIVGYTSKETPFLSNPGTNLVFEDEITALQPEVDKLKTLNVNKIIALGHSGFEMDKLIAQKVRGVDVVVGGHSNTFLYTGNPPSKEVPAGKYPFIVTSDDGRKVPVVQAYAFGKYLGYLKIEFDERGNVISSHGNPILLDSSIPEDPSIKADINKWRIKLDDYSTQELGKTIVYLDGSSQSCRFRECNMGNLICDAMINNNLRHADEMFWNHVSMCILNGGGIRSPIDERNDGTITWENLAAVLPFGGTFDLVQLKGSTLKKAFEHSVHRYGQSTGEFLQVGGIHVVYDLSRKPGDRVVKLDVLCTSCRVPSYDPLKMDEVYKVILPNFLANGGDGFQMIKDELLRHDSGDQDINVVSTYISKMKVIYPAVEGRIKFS
Protocol: Purified CD73 was concentrated to 7 mg/mL, and hanging drop crystallizations were set up versus 100 mM Tris pH 7.8 and 10% PEG6000, using equal amounts of protein and reservoir solution. Crystallisation experiments were carried out at 19 °C. Following crystal formation (1–2 days), the crystals were transferred to soaking solution containing reservoir solution with additional commercially available nucleotides or fragments (see Table S1) at concentrations between 2 and 100 mM. Crystals were then transferred to cryo solution containing an additional 20% glycerol, soaked for ~ 2–5 min and flash frozen in liquid nitrogen.
X-ray data collection was carried out at 100 K using a wavelength of 0.91841 Å on beamline 14.1 of the Berlin Synchrotron (BESSY, Berlin, Germany) equipped with a PILATUS 6 M detector [43]. All datasets were indexed, integrated, scaled and converted to structure factor amplitudes using XDSAPP [44] and AIMLESS [45]. The crystals belong to crystal form II of CD73 (pdb id 4h1y), which was used as a starting model for refinement. Coot and REFMAC5 [47] were used for model building and refinement. The final structures were validated using PROCHECK [48] and outliers in the Ramachandran plot were checked manually.
The HZB fragment library used for this work contains 102 compounds [41]. […] The presence of 12 compounds containing a nucleoside moiety in the fragment library contributed to the high hit rate of 23.5%.

[2] = biological target: CD73; details: competitive inhibitor of CD73, cited from earlier work
[3] = biological target: T1, CD73; assay: Michaelis–Menten kinetics of CD73-mediated AMP hydrolysis, malachite green assay; format: biochemical; details: AMP 5-200 μM, 1.25 ng CD73
Protocol: In this study, enzyme activity and inhibition data was characterised using a modified malachite green assay. Each assay consisted of reaction buffer A (50 mM Tris–HCl pH 7.5, 100 mM NaCl, 1 mM MgCl2) to which the appropriate substrate and/or inhibitors (see Table S1) were added. Dissolved compounds were immediately used for the inhibition assays. The reactions were generally initiated by the addition of protein. The protein concentrations, substrates and inhibitors used for the various experiments are detailed below. In all experiments, reactions were monitored over a 10-min period during which samples were taken at regular intervals. At each desired time point, a malachite green/molybdate (1:1) solution was added to the sample, which simultaneously terminated the assay and also allowed the detection of the produced phosphate ions. These reaction mixtures were incubated at 25 °C for 25 min, followed by measurement of the absorbance at 620 nm. […]
The specific activity (μmol Pi/min/mg protein) was calculated from the initial reaction rates and was used to determine when the protein refolding process had reached completion. […] Kinetic values were determined by fitting the Michaelis–Menten equation to the initial reaction rates using GraphPad Prism (GraphPad Software, La Jolla, CA, USA). […]

[4] = system: CD73; details: cited from earlier work; for Km: AMP as substrate; for specific activity: AMP; for turnover rate: substrate of CD73
[5] = set-up: method as in earlier work; details: last proton on the β-phosphonate group; cited from earlier work
[6] = biological target: rat CD73; details: cited from earlier work
[7] = biological target: T1, CD73; assay: Substrate preference of CD73 for nucleoside monophosphates, malachite green assay; format: biochemical; details: 1 mM substrate; for percentage activity relative to AMP (100%): 1.25 ng CD73; for decrease in absolute activity (relative to AMP) compared with the ribonucleotide equivalent: deoxyribo form vs ribo form
Protocol: Each assay consisted of reaction buffer A (50 mM Tris–HCl pH 7.5, 100 mM NaCl, 1 mM MgCl2) to which the appropriate substrate and/or inhibitors (see Table S1) were added. Dissolved compounds were immediately used for the inhibition assays. The reactions were generally initiated by the addition of protein. The protein concentrations, substrates and inhibitors used for the various experiments are detailed below. In all experiments, reactions were monitored over a 10-min period during which samples were taken at regular intervals. At each desired time point, a malachite green/molybdate (1:1) solution was added to the sample, which simultaneously terminated the assay and also allowed the detection of the produced phosphate ions. These reaction mixtures were incubated at 25 °C for 25 min, followed by measurement of the absorbance at 620 nm. A standard curve (0–50 μM orthophosphate) was performed prior to each assay and was used to calculate the phosphate concentration. All measurements were carried out in triplicate. […] The specific activity (μmol Pi/min/mg protein) was calculated from the initial reaction rates and was used to determine when the protein refolding process had reached completion. […] Kinetic values were determined by fitting the Michaelis–Menten equation to the initial reaction rates using GraphPad Prism (GraphPad Software, La Jolla, CA, USA).

[8] = system: rat CD73; assay: Literature inhibition of rat CD73; format: biochemical; details: rat CD73, from literature Ki values
[9] = biological target: T1, CD73; assay: CD73 inhibition, malachite green assay; format: biochemical
Protocol: In this study, enzyme activity and inhibition data was characterised using a modified malachite green assay. Each assay consisted of reaction buffer A (50 mM Tris–HCl pH 7.5, 100 mM NaCl, 1 mM MgCl2) to which the appropriate substrate and/or inhibitors (see Table S1) were added. Dissolved compounds were immediately used for the inhibition assays. The reactions were generally initiated by the addition of protein. The protein concentrations, substrates and inhibitors used for the various experiments are detailed below. In all experiments, reactions were monitored over a 10-min period during which samples were taken at regular intervals. At each desired time point, a malachite green/molybdate (1:1) solution was added to the sample, which simultaneously terminated the assay and also allowed the detection of the produced phosphate ions. These reaction mixtures were incubated at 25 °C for 25 min, followed by measurement of the absorbance at 620 nm. A standard curve (0–50 μM orthophosphate) was performed prior to each assay and was used to calculate the phosphate concentration. All measurements were carried out in triplicate.
To study the inhibition kinetics of CD73 against a panel of commercially available nucleotide-diphosphate analogues (AMPCP, GMPCP, dUMPCP and CMPCP; see Table S1), their IC50 values were determined. In these tests, CD73 protein (1.25 ng) was incubated in reaction buffer A containing various inhibitor concentrations (0.015, 0.031, 0.061, 0.12, 0.24, 0.49, 0.98, 1.95, 3.91, 7.81, 15.62, 31.25, 62.5, 125, 250 and 500 μM). […] Dose–response curves were plotted in GraphPad Prism (GraphPad Prism Software, La Jolla, CA, USA), and the inflection point of each curve was used to determine the IC50 value of each inhibitor. The IC50 values were then used to calculate the Ki value of each inhibitor using the Cheng-Prusoff equation [51].

[10] = calculated from IC50 with the Cheng-Prusoff equation, human deglycosylated CD73 construct, read-out: Ki

binding to the nucleoside binding site (crystal structure) [1]: did bind to the nucleoside binding site
Structure (SMILES): O=[N+]([O-])c1ccc(O)c(O)c1 [4-nitrocatechol]

binding to the nucleoside binding site (crystal structure) [1]: did bind to the nucleoside binding site
Structure (SMILES): O=c1[nH]cc(I)c(=O)[nH]1 [5-iodouracil]

Structure (SMILES): Nc1ncnc2c1ncn2[C@@H]1O[C@H](COP(=O)(O)OP(=O)(O)O)[C@@H](O)[C@H]1O [ADP]
Ki ([2]; ref 29): 3880 nM | Ki ([2]; ref 32): 82 nM | Ki ([2]; ref 33): 910 nM

Vmax [3]: 301.2 ± 2.9 U/mg
Structure (SMILES): Nc1ncnc2c1ncn2[C@@H]1O[C@H](COP(=O)(O)O)[C@@H](O)[C@H]1O [AMP, Adenosine 5'-monophosphate]
Km ([4]; same construct after refolding): 6.6 µM and 7 µM | Km ([4]; ref 8): 1 to 50 µM | Km ([4]; ref 29): 59 µM | specific activity ([4]; human CD73 purified from an adenocarcinoma cell line): 130 U/mg | specific activity ([4]; this construct after refolding): 577.2 U/mg | turnover rate [4]: 856 nmol/min/mg

Structure (SMILES): Nc1ncnc2c1ncn2[C@@H]1O[C@H](COP(=O)(O)CP(=O)(O)O)[C@@H](O)[C@H]1O [AMPCP, Adenosin 5'-[α,β-methylene] diphosphoric acid]
pKa [5]: 8.3 | Ki [6]: 197 ± 5 nM

Structure (SMILES): Nc1ncnc2c1ncn2[C@@H]1O[C@H](COP(=O)(O)OP(=O)(O)OP(=O)(O)O)[C@@H](O)[C@H]1O [ATP]
Ki ([2]; ref 32): 1500 nM | Ki ([2]; ref 33): 8900 nM

percentage activity relative to AMP (100%) [7]: 73.4%
Structure (SMILES): Nc1ccn([C@@H]2O[C@H](COP(=O)(O)O)[C@@H](O)[C@H]2O)c(=O)n1 [CMP, Cytidine 5′-monophosphate]

ratio Ki (CMPCP)/Ki (AMPCP) [8]: 4.6 | Ki [9, 10]: 304 ± 5.8 nM | ratio Ki (CMPCP)/Ki (AMPCP) ([9]; human CD73 construct of this work): 5.1 | IC50 ([9]; read-out: IC50): 3200 ± 20 nM
Structure (SMILES): Nc1ccn([C@@H]2O[C@H](COP(=O)(O)CP(=O)(O)O)[C@@H](O)[C@H]2O)c(=O)n1 [CMPCP, Cytidine-5'-[(α,β)-methyleno]diphosphate, Sodium salt]
Ki [6]: 898 ± 63 nM

percentage activity relative to AMP (100%) [7]: 33.2%
Structure (SMILES): Nc1nc2c(ncn2[C@@H]2O[C@H](COP(=O)([O-])[O-])[C@@H](O)[C@H]2O)c(=O)[nH]1.[Na+].[Na+] [GMP, Guanosin-5'-monophosphat Dinatriumsalz]

Structure (SMILES): Nc1nc2c(ncn2[C@@H]2O[C@H](COP(=O)(O)CP(=O)(O)O)[C@@H](O)[C@H]2O)c(=O)[nH]1 [GMPCP, α,β-Methyleneguanosine 5′-diphosphate sodium salt]
IC50 [9]: 1420 ± 20 nM | Ki [9]: 135 ± 2.7 nM

Structure (SMILES): NC(=O)c1ccc[n+]([C@@H]2O[C@H](COP(=O)([O-])OP(=O)(O)OC[C@H]3O[C@@H](n4cnc5c(N)ncnc54)[C@H](O)[C@@H]3O)[C@@H](O)[C@H]2O)c1 [NAD^+]
turnover rate [4]: 5 nmol/min/mg

percentage activity relative to AMP (100%) [7]: 87.1%
Structure (SMILES): O=c1ccn([C@@H]2O[C@H](COP(=O)([O-])[O-])[C@@H](O)[C@H]2O)c(=O)[nH]1.[Na+].[Na+] [UMP, Uridin-5'-Monophosphate Dinatriumsalz]

Structure (SMILES): O=c1ccn([C@@H]2O[C@H](COP(=O)(O)CP(=O)(O)O)[C@@H](O)[C@H]2O)c(=O)[nH]1 [UMPCP]
Ki [6]: 1830 ± 530 nM

Structure (SMILES): Cn1c(=O)c2c(ncn2C)n(C)c1=O [caffeine]
binding to the nucleoside binding site (crystal structure) [1]: did bind to the nucleoside binding site

decrease in absolute activity (relative to AMP) compared with the ribonucleotide equivalent [7]: 28.8%
Structure (SMILES): Nc1ncnc2c1ncn2[C@H]1C[C@H](O)[C@@H](COP(=O)(O)O)O1 [dAMP, 2′-Deoxyadenosine 5′-monophosphate]

percentage activity relative to AMP (100%) [7]: 47.6%
Structure (SMILES): Nc1ccn([C@H]2C[C@H](O)[C@@H](COP(=O)(O)O)O2)c(=O)n1 [dCMP, 2′-Deoxycytidine 5′-monophosphate]

percentage activity relative to AMP (100%) [7]: 4.8% | decrease in absolute activity (relative to AMP) compared with the ribonucleotide equivalent [7]: 28.4%
Structure (SMILES): Nc1nc2c(ncn2[C@H]2C[C@H](O)[C@@H](COP(=O)(O)O)O2)c(=O)[nH]1 [dGMP, 2′-Deoxyguanosine 5′-monophosphate]

binding to the nucleoside binding site (crystal structure) [1]: only low occupancy binding | percentage activity relative to AMP (100%) [7]: 49.4%
Structure (SMILES): Cc1cn([C@H]2C[C@H](O)[C@@H](COP(=O)([O-])[O-])O2)c(=O)[nH]c1=O.[Na+].[Na+] [dTMP, Thymidine 5'-Monophosphate Natriumsalz]

Ki [9, 10]: 374 ± 6.9 nM | loss in affinity ([9]; comparison between CMPCP and dUMPCP): 1.2 fold | IC50 ([9]; read-out: IC50): 3940 ± 10 nM
Structure (SMILES): O=c1ccn([C@H]2C[C@H](O)[C@@H](COP(=O)(O)CP(=O)(O)O)O2)c(=O)[nH]1 [dUMPCP, 2'-Deoxyuridine-5'-[(α,β)-methyleno]diphosphate, Sodium salt]

Structure (SMILES): NC(=O)c1ccc[n+]([C@@H]2O[C@H](COP(=O)([O-])O)[C@@H](O)[C@H]2O)c1 [nicotinamide mononucleotide]
turnover rate [4]: 110 nmol/min/mg

binding to the nucleoside binding site (crystal structure) [1]: did bind to the nucleoside binding site
Structure (SMILES): Cc1cc2nc3c(=O)[nH]c(=O)nc-3n(C[C@H](O)[C@H](O)[C@H](O)CO)c2cc1C [riboflavin]
